Laboratory results reported in US9365604B2, “Oligomer-nucleoside phosphate conjugates” (NEKTAR THERAPEUTICS, priority 2007, dated 2016).
Where two headings read alike, the source gives them in different places.

What was measured:
[1] = system: DU145; assay: Sulforhodamine B (SRB) growth inhibition assay; type: cell-based, Human; settings: SRB assay
Method: (§1) The aim was to determine the GI50 values for PEG-floxuridine conjugates against a panel of cell lines, and based on previous data from Xenograft studies. […] The test articles were solubilized in dimethylsulfoxide and were tested at four different molar (M) concentrations; 10^−4, 10^−5, 10^−6, M. GI50 (the concentration needed to reduce the growth of treated cells to half that of untreated control cells) was calculated for each condition ([(Ti−Tz)/(C-Tz)]×100=50, where Ti, Tz, and C refer to absorbance values obtained from each tested concentration, time zero, and control treatment, respectively).
as §1, with “The objective” for “The aim”, “the IC50” for “the GI50”, “for PEG-gemcitabine” for “for PEG-floxuridine”, “in dimethyl sulfoxide” for “in dimethylsulfoxide”, “10^−6, 10^−7” for “10^−6,”, “condition ([(Ti−Tz)/(C−Tz)]×100=50,” for “condition ([(Ti−Tz)/(C-Tz)]×100=50,”

[2] = system: A2780; assay: Sulforhodamine B (SRB) growth inhibition assay; type: cell-based, Human; settings: for ratio vs gem (GI50) A2780: GI50 of conjugate vs gemcitabine; for GI50: SRB assay
Method: (§2) In Vitro Screening of PEG-Gemcitabine Monophosphate in Selected Human Cancer Cell Lines
as §1
as §1, with “The objective” for “The aim”, “the IC50” for “the GI50”, “for PEG-gemcitabine” for “for PEG-floxuridine”, “in dimethyl sulfoxide” for “in dimethylsulfoxide”, “10^−6, 10^−7” for “10^−6,”, “condition ([(Ti−Tz)/(C−Tz)]×100=50,” for “condition ([(Ti−Tz)/(C-Tz)]×100=50,”

[3] = system: COLO205; assay: Sulforhodamine B (SRB) growth inhibition assay; type: cell-based, Human; settings: for GI50: COLO205, SRB assay; for ratio vs gem (GI50) COLO-205: GI50 of conjugate vs gemcitabine
Method: as §2, §1
as §1, with “The objective” for “The aim”, “the IC50” for “the GI50”, “for PEG-gemcitabine” for “for PEG-floxuridine”, “in dimethyl sulfoxide” for “in dimethylsulfoxide”, “10^−6, 10^−7” for “10^−6,”, “condition ([(Ti−Tz)/(C−Tz)]×100=50,” for “condition ([(Ti−Tz)/(C-Tz)]×100=50,”

[4] = system: HCT15; assay: Sulforhodamine B (SRB) growth inhibition assay; type: cell-based, Human; settings: for ratio vs gem (GI50) HCT15: GI50 of conjugate vs gemcitabine; for GI50: SRB assay
Method: as §2, §1
as §1, with “The objective” for “The aim”, “the IC50” for “the GI50”, “for PEG-gemcitabine” for “for PEG-floxuridine”, “in dimethyl sulfoxide” for “in dimethylsulfoxide”, “10^−6, 10^−7” for “10^−6,”, “condition ([(Ti−Tz)/(C−Tz)]×100=50,” for “condition ([(Ti−Tz)/(C-Tz)]×100=50,”

[5] = system: HT29; assay: Sulforhodamine B (SRB) growth inhibition assay; type: cell-based, Human; settings: for ratio vs gem (GI50) HT29: GI50 of conjugate vs gemcitabine; for GI50: SRB assay
Method: as §2, §1
as §1, with “The objective” for “The aim”, “the IC50” for “the GI50”, “for PEG-gemcitabine” for “for PEG-floxuridine”, “in dimethyl sulfoxide” for “in dimethylsulfoxide”, “10^−6, 10^−7” for “10^−6,”, “condition ([(Ti−Tz)/(C−Tz)]×100=50,” for “condition ([(Ti−Tz)/(C-Tz)]×100=50,”

[6] = system: NCI/ADR-RES; assay: Sulforhodamine B (SRB) growth inhibition assay; type: cell-based, Human
Method: as §2
(§3) The aim was to determine the GI50 values for PEG-floxuridine conjugates against a panel of cell lines, and based on previous data from Xenograft studies. The cells were exposed for 24 h, and cell viability assessed by using the Sulphorhodamine (SRB) assay. The test articles were solubilized in dimethylsulfoxide and were tested at four different molar (M) concentrations; 10^−4, 10^−5, 10^−6, M. GI50 (the concentration needed to reduce the growth of treated cells to half that of untreated control cells) was calculated for each condition ([(Ti−Tz)/(C-Tz)]×100=50, where Ti, Tz, and C refer to absorbance values obtained from each tested concentration, time zero, and control treatment, respectively).
as §3, with “The objective” for “The aim”, “the IC50” for “the GI50”, “for PEG-gemcitabine” for “for PEG-floxuridine”, “in dimethyl sulfoxide” for “in dimethylsulfoxide”, “10^−6, 10^−7” for “10^−6,”, “condition ([(Ti−Tz)/(C−Tz)]×100=50,” for “condition ([(Ti−Tz)/(C-Tz)]×100=50,”

[7] = system: HCT-116; assay: In vitro cytotoxicity assay (CellTiter-Glo); type: cell-based; settings: for IC50: 72 h exposure, CellTiter-Glo
Method: (§4) The objective of these studies were to determine the IC50 values for PEG-floxuridine conjugates against floxuridine-resistant cell lines based on data from previous Xenograft studies. The cells were exposed for 72 h, and cell viability assessed by using the CellTiter-Glo assay.
(§5) The objective of these studies was to determine the IC50 values for PEG-gemcitabine conjugates against gemcitabine-resistant cell lines based on data from previous Xenograft studies. The cells were exposed for 72 h, and cell viability assessed by using the CellTiter-Glo assay.

[8] = system: HT-29; assay: In vitro cytotoxicity assay (CellTiter-Glo); type: cell-based; settings: for IC50: 72 h exposure, CellTiter-Glo
Method: as §4, §5

[9] = system: MIA PaCa-2; assay: In vitro cytotoxicity assay (CellTiter-Glo); type: cell-based; settings: for IC50: 72 h exposure, CellTiter-Glo
Method: as §4, §5

[10] = system: CAKI-1; assay: In vitro cytotoxicity assay (CellTiter-Glo); type: cell-based; settings: for IC50: 72 h exposure, CellTiter-Glo
[11] = system: AS283; assay: In vitro cytotoxicity assay (CellTiter-Glo); type: cell-based; settings: for IC50: 72 h exposure, CellTiter-Glo
Method: as §5

[12] = system: CCRF-CEM; assay: In vitro cytotoxicity assay (CellTiter-Glo); type: cell-based; settings: for IC50: 72 h exposure, CellTiter-Glo
Method: as §5

[13] = system: DLD-1; assay: In vitro cytotoxicity assay (CellTiter-Glo); type: cell-based; settings: for IC50: 72 h exposure, CellTiter-Glo
Method: as §5

[14] = system: HL-60; assay: In vitro cytotoxicity assay (CellTiter-Glo); type: cell-based; settings: for IC50: 72 h exposure, CellTiter-Glo
Method: as §5

[15] = system: K-562; assay: In vitro cytotoxicity assay (CellTiter-Glo); type: cell-based; settings: for IC50: 72 h exposure, CellTiter-Glo
Method: as §5

[16] = system: NCI-H23; assay: In vitro cytotoxicity assay (CellTiter-Glo); type: cell-based; settings: for IC50: 72 h exposure, CellTiter-Glo
Method: as §5

[17] = system: NCI-H460; assay: In vitro cytotoxicity assay (CellTiter-Glo); type: cell-based; settings: for IC50: 72 h exposure, CellTiter-Glo
Method: as §5

[18] = system: NCI-H522; assay: In vitro cytotoxicity assay (CellTiter-Glo); type: cell-based; settings: for IC50: 72 h exposure, CellTiter-Glo
Method: as §5

[19] = system: RL; assay: In vitro cytotoxicity assay (CellTiter-Glo); type: cell-based; settings: for IC50: 72 h exposure, CellTiter-Glo
Method: as §5

[20] = system: SW-620; assay: In vitro cytotoxicity assay (CellTiter-Glo); type: cell-based; settings: for IC50: 72 h exposure, CellTiter-Glo
Method: as §5

[21] = on a mM basis
Method: Cells were inoculated into 24-well microtiter plates in 100 μL at 5×10^3 cells/well, in duplicate. After 24 h, test articles were added to the cells for 24 or 48 h, after which time the supernatant from each of the wells was collected and stored below −15° C. until LC/MS analysis.

[22] = system: MDCK cells; assay: Bi-directional permeability in MDCK cells
Excerpt: Bi-Directional Permeability of PEG-Floxuridine Conjugates in Caco-2 and MDCK Cells

[23] = 48 h drug exposure, read-out: GI50 (molar concentration) in Cell Line DU145
[24] = cells exposed for 24 h, read-out: GI50 values (μM) DU145
[25] = 48 h drug exposure, read-out: GI50 (molar concentration) in Cell Line A2780
[26] = cells exposed for 24 h, read-out: GI50 values (μM) A2780
[27] = 48 h drug exposure, read-out: GI50 (molar concentration) in Cell Line COLO205
[28] = cells exposed for 24 h, read-out: GI50 values (μM) COLO205
[29] = 48 h drug exposure, read-out: GI50 (molar concentration) in Cell Line HCT15
[30] = cells exposed for 24 h, read-out: GI50 values (μM) HCT15
[31] = 48 h drug exposure, read-out: GI50 (molar concentration) in Cell Line HT29
[32] = cells exposed for 24 h, read-out: GI50 values (μM) HT29
[33] = cells exposed for 24 h, read-out: GI50 values (μM) NCI/ADR-RES

SMILES: COCCOCCOCCOCCOCCOCCOCCOP(=O)(O)OC[C@H]1O[C@@H](n2ccc(N)nc2=O)C(F)(F)[C@@H]1O.Cl [Gemcitabine Mono (mPEG7), 5′-gemcitabine methoxy hepta(ethylene glycol) phosphate hydrochloride]
- GI50 [1, 23]: < 0.1 µM
- GI50 [1, 24]: < 0.1 µM
- ratio vs gem (GI50) A2780 [2]: 2
- GI50 [2, 25]: 0.15 µM
- GI50 [2, 26]: 0.15 µM
- GI50 [3, 27]: 0.18 µM
- GI50 [3, 28]: 0.18 µM
- ratio vs gem (GI50) COLO-205 [3]: 1
- ratio vs gem (GI50) HCT15 [4]: 14
- GI50 [4, 29]: 2.3 µM
- GI50 [4, 30]: 2.3 µM
- ratio vs gem (GI50) HT29 [5]: 15
- GI50 [5, 31]: 32 µM
- GI50 [5, 32]: 32 µM
- GI50 ([6]; 48 h drug exposure, read-out: GI50 (molar concentration) in Cell Line NCI/ADR-RES): 2 µM
- GI50 [6, 33]: 2 µM
- Ratio vs gem (IC50) HCT-116 [7]: 2
- IC50 [7]: 4 nM
- Ratio vs gem (IC50) HT-29 [8]: 56
- IC50 [8]: 6250 nM
- Ratio vs gem (IC50) MIA PaCa-2 [9]: 3
- IC50 [9]: 84 nM
- Ratio vs gem (IC50) CAKI-1 [10]: 6
- IC50 [10]: 50 nM
- Ratio vs gem (IC50) AS283 [11]: 3
- IC50 [11]: 398 nM
- Ratio vs gem (IC50) CCRF-CEM [12]: 1
- IC50 [12]: 10 nM
- Ratio vs gem (IC50) DLD-1 [13]: 2
- IC50 [13]: 36 nM
- Ratio vs gem (IC50) HL-60 [14]: 2
- IC50 [14]: 2.6 nM
- Ratio vs gem (IC50) K-562 [15]: 2
- IC50 [15]: 1150 nM
- Ratio vs gem (IC50) NCI-H23 [16]: 7
- IC50 [16]: 47 nM
- Ratio vs gem (IC50) NCI-H460 [17]: 3
- IC50 [17]: 48 nM
- Ratio vs gem (IC50) NCI-H522 [18]: 6
- IC50 [18]: 26 nM
- Ratio vs gem (IC50) RL [19]: 1
- IC50 [19]: 259 nM
- Ratio vs gem (IC50) SW-620 [20]: 4
- IC50 [20]: 182 nM
- remains after 24 and 48 h [21]: approximately 80%
- Papp A -> B [22]: <0.06 10^−6 cm/s
- Papp B -> A [22]: <0.08 10^−6 cm/s
- Significant efflux [22]: No
- percent recovery A -> B [22]: 94%
- percent recovery B -> A [22]: 96%

SMILES: COCCOCCOCCOP(=O)(O)OC[C@H]1O[C@@H](n2ccc(N)nc2=O)C(F)(F)[C@@H]1O.Cl [Gemcitabine Mono (mPEG3), 5′-gemcitabine methoxy tri(ethylene glycol) phosphate hydrochloride]
- GI50 [1, 23]: < 0.1 µM
- GI50 [1, 24]: < 0.1 µM
- ratio vs gem (GI50) A2780 [2]: 2
- GI50 [2, 25]: 0.15 µM
- GI50 [2, 26]: 0.15 µM
- GI50 [3, 27]: 0.16 µM
- GI50 [3, 28]: 0.16 µM
- ratio vs gem (GI50) COLO-205 [3]: 1
- ratio vs gem (GI50) HCT15 [4]: 14
- GI50 [4, 29]: 2.2 µM
- GI50 [4, 30]: 2.2 µM
- ratio vs gem (GI50) HT29 [5]: 13
- GI50 [5, 31]: 28 µM
- GI50 [5, 32]: 28 µM
- GI50 [6, 33]: 1.7 µM
- Ratio vs gem (IC50) HCT-116 [7]: 2
- IC50 [7]: 2.9 nM
- Ratio vs gem (IC50) HT-29 [8]: 7
- IC50 [8]: 755 nM
- Ratio vs gem (IC50) MIA PaCa-2 [9]: 3
- IC50 [9]: 76 nM
- Ratio vs gem (IC50) CAKI-1 [10]: 3
- IC50 [10]: 21 nM
- Ratio vs gem (IC50) AS283 [11]: 3
- IC50 [11]: 408 nM
- Ratio vs gem (IC50) CCRF-CEM [12]: 1
- IC50 [12]: 6.5 nM
- Ratio vs gem (IC50) DLD-1 [13]: 4
- IC50 [13]: 93 nM
- Ratio vs gem (IC50) HL-60 [14]: 1
- IC50 [14]: 2 nM
- Ratio vs gem (IC50) K-562 [15]: 1
- IC50 [15]: 914 nM
- Ratio vs gem (IC50) NCI-H23 [16]: 3
- IC50 [16]: 18 nM
- Ratio vs gem (IC50) NCI-H460 [17]: 3
- IC50 [17]: 43 nM
- Ratio vs gem (IC50) NCI-H522 [18]: 8
- IC50 [18]: 36 nM
- Ratio vs gem (IC50) RL [19]: 2
- IC50 [19]: 568 nM
- Ratio vs gem (IC50) SW-620 [20]: 2
- IC50 [20]: 95 nM
- remains after 24 and 48 h [21]: approximately 80%
- Papp A -> B [22]: <0.06 10^−6 cm/s
- Papp B -> A [22]: <0.08 10^−6 cm/s
- Significant efflux [22]: No
- percent recovery A -> B [22]: 91%
- percent recovery B -> A [22]: 96%
